This is an account of results in patent US10807994B2, “Heterocyclic compounds and uses thereof” (NUVATION BIO INC., priority 2017, dated 2020).

One experiment deals with A549 cells. Kind of experiment: Cytotoxicity assay (resazurin), A549 cells, 96 hr. The class given is cell-based. To be noted: Homo sapiens, read-out: Cell Viability A549 IC50. The protocol:
(§1) A549 (CCL-185; ATCC) and A427 (HTB-53; ATCC), both lung epithelial cell lines were seeded in their respective medium (DMEM/MEM, 10569044/41090101; Gibco) at a cell count of 1500 cells per 100 μL per well in a 96 well edge plate (167425; ThermoFisher). Cells were allowed to grow at 37° C. for 24 hr in 5% CO2 environment (culture conditions) in a Nuaire incubator (humidified). Serially diluted test compounds (100 μL) within the desired testing concentration ranges were added to the culture plate were further incubated in culture conditions for 72 hr and 96 hr for A427 and A549 respectively. The experiment was terminated at the designated incubation time by replacing the medium with 100 μL of 1 mM of resazurin (R7017; Sigma) prepared in respective culture medium, and the plates were further incubated in culture conditions for 4-6 hr. Fluorescence was recorded using a multimodal plate reader (Biotek Synergy Neo) at an excitation wavelength of 535 nm and emission wavelength of 590 nm to obtain relative fluorescence units. Data analysis was done by subtracting the background fluorescence (only medium blank) value from each reading and then normalizing with the vehicle control (DMSO treated cells) to obtain percent survival/proliferation. Percent survival was then subtracted by 100 to get the percent inhibition of proliferation which was used to calculate IC50 values. Potency of compounds in other cell lines (As-Pc-1, Panc-10.05, MDAMB231, A172) was determined in an analogous manner.
(The colour change of resazurin is a common sign of viable cells or microbes.)

Another experiment concerns LoVo cells. Kind of experiment: Cell proliferation assay (Cell Titer-Glo), LoVo cells. To be noted: Homo sapiens, typically 72 hrs post-treatment. The class given is cell-based. The protocol: (§2) The effects of test compounds were studied in five cell lines with various histotypes. The cancer cells (Table 4) were harvested during the logarithmic growth period and counted. Adjust cell concentrations to the appropriated number with respective medium, and add 90 μL cell suspensions to 96-well plates. After cells were seeded, the plates were shaken gently to distribute cells evenly and incubated at 37° C., 5% CO2 on day 1.
(§3) Cells were treated with test compounds at 9 concentrations within a desired concentration range (e.g. 1.5 nM-10 μM) on day 2 by series diluting the test compound stock solution (10 mM in DMSO) with culture medium. Cell viability was assessed by Cell Titer-Glo® as recommended by Promega (Cat. No.: G7572, Promega) typically 72 hrs post-treatment.
(§4) Cell viability data were plotted using GraphPad Prism (version 5, GraphPad Software, Inc., San Diego, Calif.). In addition, a nonlinear regression model with a sigmoidal dose response and variable slope within GraphPad Prism was used to calculate the IC50 value of individual test compounds.

In experiment [1] the test system is A427 cells. Kind of experiment: Cytotoxicity assay (resazurin), A427 cells, 72 hr. The class given is cell-based. Particulars: Homo sapiens, A-427, read-out: Cell Viability A427 IC50. In a few lines:
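Cells seeded at 1500 per well, grown 24 hr at 37° C, 5% CO2, then exposed to serially diluted compounds for 72–96 hr before 4–6 hr with 1 mM resazurin (Ex 535/Em 590 nm). Blank-subtracted signal normalised to DMSO control; percent inhibition used for IC50.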

In experiment [2] the test system is A427 cells. Kind of experiment: Cell proliferation assay (Cell Titer-Glo), A427 cells. Particulars: Homo sapiens, A-427, typically 72 hrs post-treatment. The class given is cell-based. On the procedure: as §2, §3, §4
The subject of another experiment is HCT-116 cells. Kind of experiment: Cell proliferation assay (Cell Titer-Glo), HCT-116 cells. The class given is cell-based. To be noted: Homo sapiens, typically 72 hrs post-treatment, read-out: IC50 HCT116. The protocol:
as §2, §3, §4
A general note: In ATP-based viability assays light output follows the ATP content of the culture.

In a further experiment the test system is NCI-H460 cells. Kind of experiment: Cell proliferation assay (Cell Titer-Glo), NCI-H460 cells. The class given is cell-based. To be noted: Homo sapiens, typically 72 hrs post-treatment. On the procedure: as §2, §3, §4
Another experiment concerns the target WEE1 kinase enzyme (Homo sapiens (Human), UniProt P30291). Kind of experiment: WEE1 IC50 determination, LanthaScreen Terbium labeled TR-FRET kinase assay. To be noted: WEE1 enzyme 1 nM. The class given is biochemical. In a few lines: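 Human WEE1 (1 nM) was preincubated 10 min with 3-fold diluted compounds, then ATP ([…]) and fluorescent PolyGT substrate (200 nM) were added for 1 h at room temperature in the dark. Terbium antibody/EDTA stop, TR-FRET read (ex 340, em 495/520 nm); IC50 from four-parameter logistic fit of percent inhibition.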
On the technique in general: Time-resolved FRET reads energy transfer from a long-lived donor to a nearby acceptor.

A further experiment relates to A2780 cells. Kind of experiment: Cell proliferation assay (Cell Titer-Glo), A2780 cells. The class given is cell-based. To be noted: Homo sapiens, typically 72 hrs post-treatment. On the procedure: as §2, §3, §4
In experiment [3] the test system is A427 cells. Kind of experiment: Cell viability in combination with cisplatin in A427 cells (resazurin). The class given is cell-based. Particulars: Homo sapiens, A-427, 24 hr 2.5 μM cisplatin. On the procedure: The activity of test compounds in combination with cisplatin in A427 cells was determined. Cells were seeded in a 96 well plate at 2000 cells/well. The next day, cells were treated with 2.5 μM cisplatin or vehicle (1×PBS) and incubated in culture conditions (37° C., 5% CO2) for 24 hr. Following the incubation, culture medium was replaced with medium containing test compound and cisplatin/vehicle, and cells were further incubated in culture conditions for another 72 hr. By this procedure, cisplatin was either continued or discontinued after an initial 24-hr incubation. Addition of test compound was in concentrations needed to obtain an 8-point dose response curve, with concentrations prepared by 3-fold dilution. The assay was terminated upon addition of resazurin, incubation for 4 hr in culture conditions and measurement of fluorescence at excitation and emission wavelengths of 535 and 590 nm, respectively.

In another experiment the test system is A172 cells. Kind of experiment: Cytotoxicity assay (resazurin), A172 cells. The class given is cell-based. Particulars: Homo sapiens, A 172, read-out: Cell Viability A172 IC50. The protocol: as §1
The test system of the next experiment is MDAMB231 cells. Kind of experiment: Cytotoxicity assay (resazurin), MDAMB231 cells. The class given is cell-based. Particulars: Homo sapiens, MDA-MB-231, read-out: Cell Viability MDAMB 231 IC50. The protocol:
as §1

For a further experiment, the system named is As-Pc-1 cells. Kind of experiment: Cytotoxicity assay (resazurin), As-Pc-1 cells. The class given is cell-based. To be noted: Homo sapiens, ASPC1, read-out: Cell Viability AsPC-1 IC50. The protocol:
as §1

The subject of the next experiment is Panc-10.05 cells. Kind of experiment: Cytotoxicity assay (resazurin), Panc-10.05 cells. To be noted: Homo sapiens, Panc1005, read-out: Cell Viability Panc 10.05 IC50. The class given is cell-based. On the procedure: as §1
The subject of a further experiment is CDC2 at Tyr15 residue. Particulars: in combination with gemcitabine, carboplatin, or cisplatin; cited from earlier work.
Where [4] appears, read: then compound + cisplatin 72 hr, read-out: Cell viability IC50 in A427 cells with 2.5 μM cisplatin: 24 hr cisplatin then compound + cisplatin.
Setting [5] is: then compound alone 72 hr, read-out: Cell viability IC50 in A427 cells with 2.5 μM cisplatin: 24 hr cisplatin then compound.

Structures can show the parent of a compound that is named as a salt.

WEE1 kinase enzyme, sequence (P30291 whole entry): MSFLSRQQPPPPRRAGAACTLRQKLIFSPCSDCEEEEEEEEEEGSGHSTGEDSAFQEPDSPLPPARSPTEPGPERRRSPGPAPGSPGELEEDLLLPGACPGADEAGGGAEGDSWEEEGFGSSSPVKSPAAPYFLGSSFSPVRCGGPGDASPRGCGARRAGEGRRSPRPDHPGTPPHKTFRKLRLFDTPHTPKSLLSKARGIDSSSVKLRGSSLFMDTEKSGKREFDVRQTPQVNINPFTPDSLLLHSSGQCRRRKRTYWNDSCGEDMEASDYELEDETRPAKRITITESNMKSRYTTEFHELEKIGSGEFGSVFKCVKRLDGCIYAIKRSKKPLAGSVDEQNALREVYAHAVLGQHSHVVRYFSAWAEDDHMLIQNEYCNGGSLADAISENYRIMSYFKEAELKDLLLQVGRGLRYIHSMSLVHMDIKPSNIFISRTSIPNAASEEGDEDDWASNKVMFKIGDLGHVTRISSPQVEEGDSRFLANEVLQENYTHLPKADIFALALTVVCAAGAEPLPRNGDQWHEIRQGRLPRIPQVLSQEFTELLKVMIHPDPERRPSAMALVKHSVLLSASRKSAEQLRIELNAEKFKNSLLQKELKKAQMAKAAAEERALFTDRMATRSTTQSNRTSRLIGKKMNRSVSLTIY

With `CC1(C)CN(C(=O)CO)Cc2cc(Nc3ncc4c(n3)OCN(c3c(Cl)cccc3Cl)C4=O)ccc21` [Example 1.3], the half-maximal inhibitory concentration (IC50) in the experiment on A549 cells was 2.99 µM; in the experiment on LoVo cells it was 8.26 µM; with A427 cells [1], 4520 nM; in the experiment with A427 cells [2], 5.98 µM; in the experiment with HCT-116 cells, 8.12 µM; with NCI-H460 cells it was greater than 10 µM. Further, the half-inhibitory concentration (IC50) at WEE1 kinase enzyme worked out at 40 nM.

On to `CC1(C)CNCc2cc(Nc3ncc4c(n3)OCN(c3c(Cl)cccc3Cl)C4=O)ccc21` [Example 1.10], for which the 50% inhibitory concentration (IC50) with A2780 cells was 3.85 µM; in the experiment with A549 cells, 2.6 µM; with A427 cells [1], 1990 nM; with A427 cells [2] it was 1.67 µM; with A427 cells [3] (setting [4]), less than 14 nM; with A427 cells [3] (setting [5]), 360 nM. The half-maximal inhibitory concentration (IC50) on WEE1 kinase enzyme is 11 nM.

Consider `O=C1c2cnc(Nc3ccc(C4CCNCC4)cc3)nc2OCN1c1c(Cl)cccc1Cl` [Example 1.12], for which the IC50 in the experiment on A549 cells was found to be 4.7 µM; in the experiment on A172 cells it was 7.13 µM; with A427 cells [1] it was 3580 nM; in the experiment with A427 cells [2], 3.43 µM; in the experiment on MDAMB231 cells, 9.04 µM; in the experiment on As-Pc-1 cells, 7880 nM. Also, the half-maximal inhibitory concentration (IC50) with Panc-10.05 cells amounted to 3.17 µM; on WEE1 kinase enzyme, 73.5 nM.

For the compound `O=C1c2cnc(Nc3ccc4c(c3)CNCC4)nc2OCN1c1c(Cl)cccc1Cl` [Example 1.24], the IC50 in the experiment on A549 cells is 6.45 µM; in the experiment on A427 cells [1] it was 2960 nM; in the experiment with A427 cells [2] it was 2.85 µM; in the experiment with A427 cells [3] (setting [4]) it was 60 nM; in the experiment with A427 cells [3] (setting [5]), 120 nM; on WEE1 kinase enzyme, 35 nM.

Consider `O=C1c2cnc(Nc3ccc4c(c3)CNCC43CC3)nc2OCN1c1c(Cl)cccc1Cl` [Example 1.51, 3-(2,6-dichlorophenyl)-7-(2′,3′-dihydro-1′H-spiro[cyclopropane-1,4′-isoquinoline]-7′-ylamino)-2H-pyrimido[5,4-e][1,3]oxazin-4(3H)-one], for which the IC50 in the experiment on A549 cells turned out to be 6.45 µM; in the experiment with A172 cells, 8 µM; with A427 cells [1], 3040 nM; with MDAMB231 cells, 8.76 µM; in the experiment on As-Pc-1 cells, 3210 nM; with Panc-10.05 cells it was 3.34 µM. Besides, the IC50 at WEE1 kinase enzyme worked out at 11 nM.

For the compound `COc1cc(Nc2ncc3c(n2)OCN(c2c(Cl)cccc2Cl)C3=O)ccc1N1CCNCC1` [Example 1.53, 3-(2,6-dichlorophenyl)-7-(3-methoxy-4-(piperazin-1-yl)phenylamino)-2H-pyrimido[5,4-e][1,3]oxazin-4(3H)-one dihydrochloride], the concentration for half-maximal inhibition (IC50) in the experiment with A549 cells turned out to be 4.72 µM; in the experiment with A172 cells, 9.68 µM; in the experiment on A427 cells [1], 3610 nM; in the experiment on MDAMB231 cells, 10.5 µM; with As-Pc-1 cells, 2410 nM; in the experiment with Panc-10.05 cells it was 9.34 µM. Further, the 50% inhibitory concentration (IC50) on WEE1 kinase enzyme came out at 33 nM.

As for `N#Cc1cc(Nc2ncc3c(n2)OCN(c2c(Cl)cccc2Cl)C3=O)ccc1N1CCNCC1` [Example 1.55, 5-(3-(2,6-dichlorophenyl)-4-oxo-3,4-dihydro-2H-pyrimido[5,4-e][1,3]oxazin-7-ylamino)-2-(piperazin-1-yl)benzonitrile], the 50% inhibitory concentration (IC50) with A2780 cells is 6.8 µM; in the experiment with A549 cells, 1.59 µM; in the experiment with A427 cells [1], 2320 nM; with A427 cells [3] (setting [4]), less than 14 nM; with A427 cells [3] (setting [5]), 530 nM; at WEE1 kinase enzyme, 106 nM.

Regarding `Cc1cc(Nc2ncc3c(n2)OCN(c2c(Cl)cccc2Cl)C3=O)ccc1C1CCNCC1` [Example 1.60], the IC50 turned out to be 8.34 µM in the experiment on A549 cells; 4.8 µM with A172 cells; 2580 nM in the experiment on A427 cells [1]; 5.34 µM with MDAMB231 cells; 2900 nM in the experiment with As-Pc-1 cells; 2.85 µM in the experiment with Panc-10.05 cells. Moreover, at WEE1 kinase enzyme, the IC50 turned out to be 43.5 nM.

Consider `CC1(C)NCCc2cc(Nc3ncc4c(n3)OCN(c3c(Cl)cccc3Cl)C4=O)ccc21` [Example 1.227], for which the IC50 stood at 9.04 µM in the experiment on A549 cells; 6.62 µM in the experiment with A172 cells; 2200 nM with A427 cells [1]; 8.78 µM with MDAMB231 cells; 2940 nM in the experiment with As-Pc-1 cells; 4.93 µM with Panc-10.05 cells. The IC50 at WEE1 kinase enzyme was 21 nM.

Turning to `C=CCn1c(=O)c2cnc(Nc3ccc(N4CCN(C)CC4)cc3)nc2n1-c1cccc(C(C)(C)O)n1` [MK-1775, 1,2-allyl-1-(6-(2-hydroxypropan-2-yl)pyridin-2-yl)-6-((4-(4methylpiperazin-1-yl)phenyl)amino)-1H-pyrazolo[3,4-d]pyrimidin-3 (2H)-one], the “Phosphorylation of CDC2 at Tyr15” value with CDC2 at Tyr15 residue was “abolished the phosphorylation of CDC2 at Tyr15 residue”.

For orientation: IC50 means the concentration that inhibits the measured activity by half.
